The record followed here is patent US20140350081A1, “INSECT G-COUPLED RECEPTORS USEFUL AS TARGETS FOR INSECTICIDES AND COMPOUNDS AND REAGENTS IDENTIFIED USING THE SAME” (priority 2011, published 2014).

The target of assay [1] is Isdop2 (Ixodes scapularis, UniProt A0ACM8DGL0). Put plainly: cell-based. To be noted: for inhibition at 10 µM: read-out: % Inhibition (of response to dopamine), Isdop2 screen.
In assay [2] the target is AaDOP2 (Aedes aegypti, UniProt H6D5H2). Briefly: HTRF cAMP accumulation concentration response assay (Cisbio Dynamic 2). The assay is classed as cell-based. To be noted: in vitro Concentration Response Curve assay, n = 2, relative to control antagonist Amitriptyline; read-out: Avg IC50. (Time-resolved FRET reads energy transfer from a long-lived donor to a nearby acceptor.)

Assay [3] deals with Ae. aegypti L3 larvae. Briefly: whole plant or invertebrate. To be noted: Aedes aegypti.
Where [4] appears, read: 0.5 h, read-out: percent mortality 0.5 hr, 400 uM, L3 larvae, value for this scoring time.
Where [5] appears, read: 1 h, read-out: percent mortality 1 hr, 400 uM, L3 larvae, per scoring time.
[6] abbreviates: 2 h, read-out: percent mortality 2 hr, 400 uM, L3 larvae, per scoring time.
Where [7] appears, read: 3 h, read-out: percent mortality 3 hr, 400 uM, L3 larvae, per scoring time.
[8] abbreviates: 4 h, read-out: percent mortality 4 hr, 400 uM, L3 larvae, per scoring time.
Setting [9] is: 24 h, read-out: Toxicity to Aedes aegypti larvae (mortality) 24 hours, 400 μM, L3 larvae, three independent experiments.
The mark [10] stands for this setting: 24 h, read-out: percent mortality 24 hr, 400 uM, L3 larvae, per scoring time.
Setting [11] is: 48 h, read-out: Toxicity to Aedes aegypti larvae (mortality) 48 hours, 400 μM, L3 larvae, three independent experiments.
[12] abbreviates: 48 h, read-out: percent mortality 48 hr, 400 uM, L3 larvae, per scoring time.
Where [13] appears, read: 72 h, read-out: Cumulative % Mortality (72 hrs), 400 uM, L3 larvae.
Where [14] appears, read: 72 h, read-out: Toxicity to Aedes aegypti larvae (mortality) 72 hours, 400 μM, L3 larvae, three independent experiments.
Setting [15] is: 72 h, read-out: percent mortality 72 hr, 400 uM, L3 larvae, per scoring time.
[16] abbreviates: […], read-out: percent mortality […], 400 uM, L3 larvae, per scoring time.
Where [17] appears, read: 10 μM compound, footnote 3 mM dopamine.

Counter-ions that a name gives are not always drawn. Like-named read-outs stand apart in the source and are kept apart here.

Chain of AaDOP2 (H6D5H2 entry or part of it): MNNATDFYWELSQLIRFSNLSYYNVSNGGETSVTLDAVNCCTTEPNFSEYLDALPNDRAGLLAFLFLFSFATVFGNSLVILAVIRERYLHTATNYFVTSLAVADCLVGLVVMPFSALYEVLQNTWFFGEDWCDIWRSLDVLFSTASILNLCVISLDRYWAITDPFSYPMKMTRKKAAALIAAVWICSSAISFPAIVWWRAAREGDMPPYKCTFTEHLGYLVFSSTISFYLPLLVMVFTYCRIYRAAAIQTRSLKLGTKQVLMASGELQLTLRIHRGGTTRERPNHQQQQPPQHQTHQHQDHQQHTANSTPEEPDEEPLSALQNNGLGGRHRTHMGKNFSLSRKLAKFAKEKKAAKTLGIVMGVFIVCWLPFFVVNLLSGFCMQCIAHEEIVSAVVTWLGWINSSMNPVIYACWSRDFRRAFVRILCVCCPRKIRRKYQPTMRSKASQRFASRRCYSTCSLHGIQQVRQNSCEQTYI
Chain of Isdop2 (A0ACM8DGL0 entry or part of it): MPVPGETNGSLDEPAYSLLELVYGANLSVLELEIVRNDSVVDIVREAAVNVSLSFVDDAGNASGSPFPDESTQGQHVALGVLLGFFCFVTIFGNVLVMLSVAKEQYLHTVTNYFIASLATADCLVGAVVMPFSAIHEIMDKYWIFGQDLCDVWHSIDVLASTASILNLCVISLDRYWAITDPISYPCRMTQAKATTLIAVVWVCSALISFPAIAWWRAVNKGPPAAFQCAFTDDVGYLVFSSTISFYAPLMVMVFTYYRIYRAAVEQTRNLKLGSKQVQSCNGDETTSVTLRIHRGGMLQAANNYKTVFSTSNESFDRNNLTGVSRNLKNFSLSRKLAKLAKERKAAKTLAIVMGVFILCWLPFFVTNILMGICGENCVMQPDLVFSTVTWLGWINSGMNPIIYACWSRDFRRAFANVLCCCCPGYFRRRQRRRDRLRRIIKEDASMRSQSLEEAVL

For orientation: inhibition means the share of the control response that was lost under treatment. Take `C=C(C)[C@H]1Cc2c(ccc3c2O[C@@H]2COc4cc(OC)c(OC)cc4[C@@H]2C3=O)O1` [Rotenone]: the inhibition at 10 µM in assay [1] amounted to 77%.
Broadly, the IC50 is the point on the concentration scale where inhibition reaches its midpoint. On to `CCN1CCN(c2nc(Nc3ccccc3)c3cnn(-c4ccccc4)c3n2)CC1` [Compound G932-0245, 6-(4-ethylpiperazin-1-yl)-N,1-diphenyl-1H-pyrazolo[3,4-d]pyrimidin-4-amine], for which the IC50 in assay [2] was determined as 557 nM.
Turning to `CSc1ccc2c(c1)N(CCC1CCCCN1C)c1ccccc1S2` (racemic) [Thioridazine, 10-{2-[(RS)-1-Methylpiperidin-2-yl]ethyl}-2-methylsulfanylphenothiazine], in assay [1], the inhibition at 10 µM amounted to 85%.
For the compound `CN1CCc2c(c3ccccc3n2Cc2ccccc2)C1` [ST088437, 2-methyl-5-benzyl-1,2,3,4-tetrahydropyridino[4,3-b]indole], the IC50 in assay [2] was found to be 1970 nM.
Same read-out and setting: to `CN1CCN(c2nc(Nc3ccc(F)cc3)c3cnn(-c4ccccc4)c3n2)CC1` [Compound G932-0329, N-(4-fluorophenyl)-6-(4-methylpiperazin-1-yl)-1-phenyl-1H-pyrazolo[3,4-d]pyrimidin-4-amine] belongs 2500 nM.
One may read the mortality as the percentage killed. Consider `CN1CCN(CC(=O)N2c3ccccc3C(=O)Nc3cccnc32)CC1` [Pirenzepine], for which the mortality at 400 µM in assay [3] (setting [4]), in assay [3] (setting [5]), in assay [3] (setting [6]), in assay [3] (setting [7]), in assay [3] (setting [8]) and in assay [3] (setting [9]) was 0% throughout. The mortality at 400 µM in assay [3] (setting [10]), in assay [3] (setting [11]), in assay [3] (setting [12]), in assay [3] (setting [13]), in assay [3] (setting [14]) and in assay [3] (setting [15]) was 0% throughout. Also, the mortality at 400 µM in assay [3] (setting [16]) came out at 0%.
Consider `COc1ccccc1N1CCN(CCCCN2C(=O)c3ccccc3C2=O)CC1` [NAN-190 hydrobromide], for which the inhibition at 10 µM in assay [1] stood at 69%.
The same measure, in the same setting: as for `O=c1c(-c2ccc(O)cc2)coc2cc(O)cc(O)c12` [Genistein], the figure is 71%.
As for `CC(C)(C)c1cc(C=C(C#N)C#N)cc(C(C)(C)C)c1O` [Tyrphostin A9], the “% Inhibition (of response to dopamine), Isdop2 screen” value (“% Inhibition” for short) in assay [1] (setting [17]) is on record as 87%.
Regarding `O=c1cc(-c2ccc(O)cc2)oc2cc(O)cc(O)c12` [Apigenin], the inhibition at 10 µM in assay [1] was 98%.
As for `CN(C)CCC=C1c2ccccc2C=Cc2ccccc21` [Cyclobenzaprine], in assay [1], the inhibition at 10 µM amounted to 95%.
Regarding `Cc1ccc(O)c(N=Nc2ccccc2)n1` [SIB 1757], the “% Inhibition” value in assay [1] (setting [17]) is on record as 100%.
Take `O=C(N[C@@H](Cc1ccccc1)C(=O)CCl)OCc1ccccc1` [Z-L-Phe chloromethyl ketone]: the “% Inhibition” value in assay [1] stood at 90%.
`CNCCC(Oc1ccc(C(F)(F)F)cc1)c1ccccc1` (centres unmarked) [Fluoxetine]: the mortality at 400 µM in assay [3] (setting [9]) came out at 43%; in assay [3] (setting [11]), 53%; in assay [3] (setting [14]), 53%.
In the case of `COc1cccc(-c2cc(=O)c3ccccc3o2)c1N` [PD 98,059], in assay [1] (setting [17]), the “% Inhibition” value came out at 87%.
For `Cc1nc2n(c(=O)c1CCN1CCC(c3noc4cc(F)ccc34)CC1)CCCC2` [Risperidone, 4-[2-[4-(6-fluorobenzo[d]isoxazol-3-yl)-1-piperidyl]ethyl]-3-methyl-2,6-diazabicyclo[4.4.0]deca-1,3-dien-5-one], the inhibition at 10 µM in assay [1] was 100%.
Still for that read-out and setting: to `CN1CCN(CCCN2c3ccccc3Sc3ccc(Cl)cc32)CC1` [Prochlorperazine, 2-chloro-10-[3-(4-methyl-1-piperazinyl)propyl]-10H-phenothiazine] belongs 86%.
In the case of `O=C1Nc2ccccc2/C1=C1/Nc2ccccc2/C1=N\O` [Indirubin-3′-oxime], in assay [1], the “% Inhibition” value was determined as 93%.
As to `c1ccc2c(c1)[I+]c1ccccc1-2` [Diphenyleneiodonium chloride], the inhibition at 10 µM in assay [1] was 78%.
The same measure, in the same setting: to `CN1[C@@H]2CC[C@H]1C[C@@H](OC(c1ccccc1)c1ccccc1N)C2` (some centres unmarked) [Aminobenztropine] belongs 71%; to `Clc1ccc2c(c1)C(N1CCNCC1)=Nc1ccccc1O2` [Amoxapine, 2-Chloro-11-(piperazin-1-yl)dibenzo[b,f][1,4]oxazepine], 92%; to `CN1CCC(=C2c3ccccc3C=Cc3ccccc32)CC1` [Cyproheptadine], 93%.
With (±)-Butaclamol hydrochloride, the “% Inhibition” value in assay [1] worked out at 86%.
Turning to `O=c1c(-c2ccc(O)cc2)coc2cc(O)ccc12` [Daidzein], the inhibition at 10 µM in assay [1] was found to be 77%.
Regarding `CC1CNCCN1S(=O)(=O)c1cccc2cnccc12.Cl.Cl` (centres unmarked) [H-7 dihydrochloride], the “% Inhibition” value in assay [1] was 73%.
As to `C[C@@H]1O[C@@H](O[C@H]2C[C@@H](O)[C@]3(CO)[C@H]4[C@H](O)C[C@]5(C)[C@@H](C6=CC(=O)OC6)CC[C@]5(O)[C@@H]4CC[C@]3(O)C2)[C@H](O)[C@H](O)[C@H]1O` [Ouabain], the inhibition at 10 µM in assay [1] was found to be 86%.
Still for that read-out and setting: to `COc1ccccc1N1CCN(CCCCNC(=O)c2ccc3ccccc3c2)CC1` [BP 897] belongs 71%; to `CC[C@H](CO)Nc1nc(NCc2ccccc2)c2ncn(C(C)C)c2n1` [Roscovitine], 91%.
As for `CC(C)(C)c1cc(/C=C(\C#N)C(N)=S)cc(C(C)(C)C)c1O` [Tyrphostin AG 879], the “% Inhibition” value in assay [1] is listed as 75%.
Consider `CN1CCN2c3ccccc3Cc3ccccc3C2C1` (racemic) [Mianserin, ((±)-2-methyl-1,2,3,4,10,14b-hexahydrodibenzo[c,f]pyrazino [1,2-a]azepine)], for which the inhibition at 10 µM in assay [1] was determined as 87%.
The same measure, in the same setting: as for `Cc1cc(N)c2ccccc2[n+]1CCCCCCCCCC[n+]1c(C)cc(N)c2ccccc21` [Dequalinium dichloride], the figure is 75%.
Take `CN1CCc2cccc(Cl)c2CC1` [SKF86466]: in assay [1] (setting [17]), the “% Inhibition” value is listed as 86%.
Turning to `OCCN1CCN(CCCN2c3ccccc3Sc3ccc(C(F)(F)F)cc32)CC1` [Fluphenazine, 2-[4-[3-[2-(trifluoromethyl)-10H-phenothiazin-10-yl]propyl]piperazin-1-yl]ethanol], the inhibition at 10 µM in assay [1] worked out at 79%.
As to `NC(=Nc1ccccc1)NC(=O)c1nc(Cl)c(N)nc1N` [Phenamil methanesulfonate], the inhibition at 10 µM in assay [1] was 72%.
Regarding `OC[C@H]1O[C@@H](n2cnc3ccccc32)[C@H](O)[C@@H]1O` [D-ribofuranosylbenzimidazole], the “% Inhibition” value in assay [1] (setting [17]) is listed as 82%.
Regarding `O=C(c1ccc(F)cc1)C1CCN(CCn2c(=O)[nH]c3ccccc3c2=O)CC1` [Ketanserin], the mortality at 400 µM in assay [3] (setting [4]), in assay [3] (setting [5]), in assay [3] (setting [6]), in assay [3] (setting [7]), in assay [3] (setting [8]) and in assay [3] (setting [9]) was 0% each time. The mortality at 400 µM in assay [3] (setting [10]), in assay [3] (setting [11]), in assay [3] (setting [12]), in assay [3] (setting [13]), in assay [3] (setting [14]) and in assay [3] (setting [15]) was 0% in each case. For the same compound, the mortality at 400 µM in assay [3] (setting [16]) was 0%.
With `CN1CCN(CCCN2c3ccccc3Sc3ccc(C(F)(F)F)cc32)CC1` [Trifluoperazine, 10-[3-(4-methylpiperazin-1-yl)propyl]-2-(trifluoromethyl)-10H-phenothiazine], the inhibition at 10 µM in assay [1] is 76%.
`Br.CN1CCc2cc(O)c(O)cc2C(c2ccccc2)C1` (centres unmarked) [SKF 75670 hydrobromide]: the “% Inhibition” value in assay [1] was 68%.
Take `CCn1cnc2c(Nc3cccc(Cl)c3)nc(N[C@@H]3CCCC[C@@H]3N)nc21.Cl` [CGP-74514A hydrochloride]: in assay [1], the “% Inhibition” value amounted to 98%.
Regarding `C[n+]1cc2c3c(ccc2c2ccc4cc5c(cc4c21)OCO5)OCO3` [Sanguinarine chloride], the inhibition at 10 µM in assay [1] turned out to be 100%.
In the case of `O=C1Nc2ccc(I)cc2/C1=C/c1cc(Br)c(O)c(Br)c1` [GW5074], the “% Inhibition” value in assay [1] came out at 81%.
Turning to `C[C@@H]1O[C@@H](O[C@H]2C[C@@H](O)[C@]3(CO)[C@H]4[C@H](O)C[C@]5(C)[C@@H]([C@@H]6COC(=O)C6)CC[C@]5(O)[C@@H]4CC[C@]3(O)C2)[C@H](O)[C@H](O)[C@H]1O` [Dihydroouabain], in assay [1] (setting [17]), the “% Inhibition” value is recorded as 76%.
In the case of `COC1=C(OC)C(=O)c2ccccc2C1=O` [2,3-Dimethoxy-1,4-naphthoquinone], the inhibition at 10 µM in assay [1] turned out to be 68%.
Same read-out and setting: to `CC(=O)c1c(O)c(C)c(O)c(Cc2c(O)c3c(c(C(=O)/C=C/c4ccccc4)c2O)OC(C)(C)C=C3)c1O` [Rottlerin] belongs 97%.
`CCN(CC)C(=O)N[C@H]1C[C@@H]2c3cccc4[nH]cc(c34)C[C@H]2N(C)C1` [R(+)-Terguride]: in assay [1], the “% Inhibition” value came out at 68%.
